According to patent US20240000872A1, “NOVEL BACTERIOPHAGE THAT LYSES ACINETOBACTER GENUS BACTERIA HAVING RESISTANCE TO ANTIBIOTICS” (priority 2020, published 2024):

Tested on: Acinetobacter baumannii strains
Assay: Antibiotic susceptibility test (CLSI disk diffusion test method, read per CLSI 2016); on antibiotic susceptibility S/I/R: key: ‘S’ means susceptible; ‘I’ means intermediate; ‘R’ means resistant; on antibiotic susceptibility class: key: ‘S’ means susceptible; ‘I’ means intermediate; ‘R’ means resistant; on susceptibility category (S/I/R): key: ‘S’ means susceptible; ‘I’ means intermediate; ‘R’ means resistant
Assay type: cell-based
Set-up: antibiotic susceptibility test value / susceptibility test value (number given before S/I/R) / antibiotic susceptibility value: unit not given here

Substance: piperacillin-tazobactam
- antibiotic susceptibility class (host strain YMC14/01/C29): R
- antibiotic susceptibility test value (host strain YMC14/01/C29): 128
- antibiotic susceptibility class (host strain YMC14/01/IP122): R
- antibiotic susceptibility test value (host strain YMC14/01/IP122): 128
- antibiotic susceptibility class (host strain YMC14/01/L8): R
- antibiotic susceptibility test value (host strain YMC14/01/L8): 128
- antibiotic susceptibility class (host strain YMC14/01/P31): R
- antibiotic susceptibility test value (host strain YMC14/01/P31): 128
- antibiotic susceptibility class (host strain YMC14/01/P117): R
- antibiotic susceptibility test value (host strain YMC14/01/P117): 128
- antibiotic susceptibility class (host strain YMC14/01/P224): R
- antibiotic susceptibility test value (host strain YMC14/01/P224): 128
- antibiotic susceptibility class (host strain YMC14/01/P727): R
- antibiotic susceptibility test value (host strain YMC14/01/P727): 128
- antibiotic susceptibility class (host strain YMC14/01/P728): R
- antibiotic susceptibility test value (host strain YMC14/01/P728): 128
- antibiotic susceptibility class (host strain YMC14/01/R130): R
- antibiotic susceptibility test value (host strain YMC14/01/R130): 128
- antibiotic susceptibility class (host strain YMC14/01/R160): R
- antibiotic susceptibility test value (host strain YMC14/01/R160): 128
- antibiotic susceptibility class (host strain YMC14/01/R198): R
- antibiotic susceptibility test value (host strain YMC14/01/R198): 128
- antibiotic susceptibility class (host strain YMC14/01/R257): R
- antibiotic susceptibility test value (host strain YMC14/01/R257): 128
- antibiotic susceptibility class (host strain YMC14/01/R270): R
- antibiotic susceptibility test value (host strain YMC14/01/R270): 128
- antibiotic susceptibility class (host strain YMC14/01/R324): R
- antibiotic susceptibility test value (host strain YMC14/01/R324): 128
- antibiotic susceptibility class (host strain YMC14/01/R443): R
- antibiotic susceptibility test value (host strain YMC14/01/R443): 128
- antibiotic susceptibility class (host strain YMC14/01/R451): R
- antibiotic susceptibility test value (host strain YMC14/01/R451): 128
- antibiotic susceptibility class (host strain YMC14/01/R560): R
- antibiotic susceptibility test value (host strain YMC14/01/R560): 128
- antibiotic susceptibility class (host strain YMC14/01/R617): R
- antibiotic susceptibility test value (host strain YMC14/01/R617): 128
- antibiotic susceptibility class (host strain YMC14/01/R671): R
- antibiotic susceptibility test value (host strain YMC14/01/R671): 128
- antibiotic susceptibility class (host strain YMC14/01/R732): R
- antibiotic susceptibility test value (host strain YMC14/01/R732): 128
- antibiotic susceptibility class (host strain YMC14/01/R767): R
- antibiotic susceptibility test value (host strain YMC14/01/R767): 128
- antibiotic susceptibility class (host strain YMC14/01/R904): R
- antibiotic susceptibility test value (host strain YMC14/01/R904): 128
- antibiotic susceptibility class (host strain YMC14/01/R905): R
- antibiotic susceptibility test value (host strain YMC14/01/R905): 128
- antibiotic susceptibility class (host strain YMC14/01/R921): R
- antibiotic susceptibility test value (host strain YMC14/01/R921): 128
- antibiotic susceptibility class (host strain YMC14/01/R941): R
- antibiotic susceptibility test value (host strain YMC14/01/R941): 128
- antibiotic susceptibility class (host strain YMC14/01/R958): R
- antibiotic susceptibility test value (host strain YMC14/01/R958): 128
- antibiotic susceptibility class (host strain YMC14/01/R1006): R
- antibiotic susceptibility test value (host strain YMC14/01/R1006): 128
- antibiotic susceptibility class (host strain YMC14/01/R1199): R
- antibiotic susceptibility test value (host strain YMC14/01/R1199): 128
- antibiotic susceptibility class (host strain YMC14/01/R1659): R
- antibiotic susceptibility test value (host strain YMC14/01/R1659): 128
- antibiotic susceptibility class (host strain YMC14/01/R1722): R
- antibiotic susceptibility test value (host strain YMC14/01/R1722): 128
- antibiotic susceptibility class (host strain YMC14/01/R1752): R
- antibiotic susceptibility test value (host strain YMC14/01/R1752): 128
- antibiotic susceptibility class (host strain YMC14/01/R2429): R
- antibiotic susceptibility test value (host strain YMC14/01/R2429): 128
- antibiotic susceptibility class (host strain YMC14/01/R2572): R
- antibiotic susceptibility test value (host strain YMC14/01/R2572): 128
- antibiotic susceptibility class (host strain YMC14/01/R2855): R
- antibiotic susceptibility test value (host strain YMC14/01/R2855): 128
- antibiotic susceptibility class (host strain YMC14/01/R2945): R
- antibiotic susceptibility test value (host strain YMC14/01/R2945): 128
- antibiotic susceptibility class (host strain YMC14/01/R3007): R
- antibiotic susceptibility test value (host strain YMC14/01/R3007): 128
- antibiotic susceptibility class (host strain YMC14/01/R3129): R
- antibiotic susceptibility test value (host strain YMC14/01/R3129): 128
- antibiotic susceptibility class (host strain YMC14/01/R3317): R
- antibiotic susceptibility test value (host strain YMC14/01/R3317): 128
- antibiotic susceptibility class (host strain YMC14/01/R3474): R
- antibiotic susceptibility test value (host strain YMC14/01/R3474): 128
- antibiotic susceptibility class (host strain YMC14/01/R3574): R
- antibiotic susceptibility test value (host strain YMC14/01/R3574): 128
- antibiotic susceptibility class (host strain YMC14/01/U313): R
- antibiotic susceptibility test value (host strain YMC14/01/U313): 128
- antibiotic susceptibility class (host strain YMC14/01/U318): R
- antibiotic susceptibility test value (host strain YMC14/01/U318): 128
- antibiotic susceptibility class (host strain YMC14/02/L18): R
- antibiotic susceptibility test value (host strain YMC14/02/L18): 128
- antibiotic susceptibility class (host strain YMC14/02/P47): R
- antibiotic susceptibility test value (host strain YMC14/02/P47): 128
- antibiotic susceptibility class (host strain YMC14/02/R1860): R
- antibiotic susceptibility test value (host strain YMC14/02/R1860): 128
- antibiotic susceptibility class (host strain YMC14/02/R2417): R
- antibiotic susceptibility test value (host strain YMC14/02/R2417): 128
- antibiotic susceptibility class (host strain YMC14/02/R2599): R
- antibiotic susceptibility test value (host strain YMC14/02/R2599): 128
- antibiotic susceptibility class (host strain YMC14/02/R2668): R
- antibiotic susceptibility test value (host strain YMC14/02/R2668): 128
- antibiotic susceptibility class (host strain YMC14/02/R2758): R
- antibiotic susceptibility test value (host strain YMC14/02/R2758): 128
- antibiotic susceptibility class (host strain YMC14/02/R2781): R
- antibiotic susceptibility test value (host strain YMC14/02/R2781): 128
- antibiotic susceptibility class (host strain YMC14/02/R3106): R
- antibiotic susceptibility test value (host strain YMC14/02/R3106): 128
- antibiotic susceptibility class (host strain YMC14/02/R3419): R
- antibiotic susceptibility test value (host strain YMC14/02/R3419): 128
- antibiotic susceptibility class (host strain YMC14/02/U1607): R
- antibiotic susceptibility test value (host strain YMC14/02/U1607): 128
- antibiotic susceptibility class (host strain YMC14/03/L9): R
- antibiotic susceptibility test value (host strain YMC14/03/L9): 128
- antibiotic susceptibility class (host strain YMC14/03/P471): R
- antibiotic susceptibility test value (host strain YMC14/03/P471): 128
- antibiotic susceptibility class (host strain YMC14/03/R122): R
- antibiotic susceptibility test value (host strain YMC14/03/R122): 128
- antibiotic susceptibility class (host strain YMC14/03/R217): R
- antibiotic susceptibility test value (host strain YMC14/03/R217): 128
- antibiotic susceptibility class (host strain YMC14/03/R380): R
- antibiotic susceptibility test value (host strain YMC14/03/R380): 128
- antibiotic susceptibility class (host strain YMC14/03/R618): R
- antibiotic susceptibility test value (host strain YMC14/03/R618): 128
- antibiotic susceptibility class (host strain YMC14/03/R2144): R
- antibiotic susceptibility test value (host strain YMC14/03/R2144): 128
- antibiotic susceptibility class (host strain YMC14/03/U4616): R
- antibiotic susceptibility test value (host strain YMC14/03/U4616): 128
- antibiotic susceptibility class (host strain YMC14/04/R1078): R
- antibiotic susceptibility test value (host strain YMC14/04/R1078): 128
- antibiotic susceptibility class (host strain YMC14/04/R1080): R
- antibiotic susceptibility test value (host strain YMC14/04/R1080): 128
- antibiotic susceptibility S/I/R (host strain YMC14/06/R2359): R
- antibiotic susceptibility value (host strain YMC14/06/R2359): 128
- susceptibility category (S/I/R) (host strain YMC14/06/R2359): R
- susceptibility test value (number given before S/I/R) (host strain YMC14/06/R2359): 128
- antibiotic susceptibility S/I/R (host strain YMC14/08/R1169): R
- antibiotic susceptibility value (host strain YMC14/08/R1169): 128
- susceptibility category (S/I/R) (host strain YMC14/08/R1169): R
- susceptibility test value (number given before S/I/R) (host strain YMC14/08/R1169): 128
- antibiotic susceptibility S/I/R (host strain YMC14/08/T90): R
- antibiotic susceptibility value (host strain YMC14/08/T90): 128
- susceptibility category (S/I/R) (host strain YMC14/08/T90): R
- susceptibility test value (number given before S/I/R) (host strain YMC14/08/T90): 128
- antibiotic susceptibility S/I/R (host strain YMC15/02/R436): R
- antibiotic susceptibility value (host strain YMC15/02/R436): 128
- susceptibility category (S/I/R) (host strain YMC15/02/R436): R
- susceptibility test value (number given before S/I/R) (host strain YMC15/02/R436): 128
- antibiotic susceptibility S/I/R (host strain YMC15/02/T28): R
- antibiotic susceptibility value (host strain YMC15/02/T28): 128
- susceptibility category (S/I/R) (host strain YMC15/02/T28): R
- susceptibility test value (number given before S/I/R) (host strain YMC15/02/T28): 128
- antibiotic susceptibility S/I/R (host strain YMC15/03/R1604): R
- antibiotic susceptibility value (host strain YMC15/03/R1604): 128
- susceptibility category (S/I/R) (host strain YMC15/03/R1604): R
- susceptibility test value (number given before S/I/R) (host strain YMC15/03/R1604): 128
- antibiotic susceptibility S/I/R (host strain YMC15/09/R1869): R
- antibiotic susceptibility value (host strain YMC15/09/R1869): 128
- susceptibility category (S/I/R) (host strain YMC15/09/R1869): R
- susceptibility test value (number given before S/I/R) (host strain YMC15/09/R1869): 128
- antibiotic susceptibility S/I/R (host strain YMC16/01/P11): R
- antibiotic susceptibility value (host strain YMC16/01/P11): 128
- susceptibility category (S/I/R) (host strain YMC16/01/P11): R
- susceptibility test value (number given before S/I/R) (host strain YMC16/01/P11): 128
- antibiotic susceptibility S/I/R (host strain YMC16/01/R123): R
- antibiotic susceptibility value (host strain YMC16/01/R123): 128
- susceptibility category (S/I/R) (host strain YMC16/01/R123): R
- susceptibility test value (number given before S/I/R) (host strain YMC16/01/R123): 128
- antibiotic susceptibility S/I/R (host strain YMC16/01/R198): R
- antibiotic susceptibility value (host strain YMC16/01/R198): 128
- susceptibility category (S/I/R) (host strain YMC16/01/R198): R
- susceptibility test value (number given before S/I/R) (host strain YMC16/01/R198): 128
- antibiotic susceptibility S/I/R (host strain YMC16/01/R353): R
